Measured values as given in patent publication US20020132853A1, “Capsaicin receptor ligands” (priority 2000, published 2002).

Each compound was assayed against T1, human capsaicin receptor (Homo sapiens, UniProt Q8NER1) (assay: Capsaicin receptor binding assay ([3H]RTX competition)). Conditions: not given.
T1 construct: expression consrtuct encoding the full length human capsaicin receptor; expressed in transfected cells
T1 sequence (Q8NER1 whole entry): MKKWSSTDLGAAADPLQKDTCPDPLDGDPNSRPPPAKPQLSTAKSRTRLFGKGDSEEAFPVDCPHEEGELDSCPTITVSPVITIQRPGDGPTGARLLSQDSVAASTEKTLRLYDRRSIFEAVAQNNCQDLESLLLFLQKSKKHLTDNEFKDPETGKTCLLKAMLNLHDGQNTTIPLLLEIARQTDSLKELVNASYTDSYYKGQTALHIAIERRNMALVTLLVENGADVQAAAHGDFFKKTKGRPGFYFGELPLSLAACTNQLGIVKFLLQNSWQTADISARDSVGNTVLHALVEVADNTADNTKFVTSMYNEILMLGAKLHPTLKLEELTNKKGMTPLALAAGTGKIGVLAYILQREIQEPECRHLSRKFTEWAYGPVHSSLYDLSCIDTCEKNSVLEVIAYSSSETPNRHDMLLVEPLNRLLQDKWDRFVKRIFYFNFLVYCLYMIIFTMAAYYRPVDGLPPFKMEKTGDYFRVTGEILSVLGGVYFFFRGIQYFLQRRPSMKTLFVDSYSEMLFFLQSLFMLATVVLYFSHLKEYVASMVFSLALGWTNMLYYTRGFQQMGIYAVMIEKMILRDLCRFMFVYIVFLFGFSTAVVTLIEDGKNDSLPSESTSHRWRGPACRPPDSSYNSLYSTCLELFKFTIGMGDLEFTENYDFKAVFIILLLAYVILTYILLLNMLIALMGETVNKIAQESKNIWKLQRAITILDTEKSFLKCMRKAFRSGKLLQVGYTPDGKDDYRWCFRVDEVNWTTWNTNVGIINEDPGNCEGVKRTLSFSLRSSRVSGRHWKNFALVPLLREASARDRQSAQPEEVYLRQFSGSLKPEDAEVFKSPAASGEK
Description: Capsaicin Receptor Binding Assay
The following assay is a standard assay of capsaicin receptor binding that may be used to determine the binding affinity of compounds for the capsaicin (VR1) receptor.
Materials. [^3H]Resiniferatoxin (RTX; 37 Ci/mmol) was synthesized by and obtained from the Chemical Synthesis and Analysis Laboratory, National Cancer Institute-Frederick Cancer Research and Development Center, Frederick, MD. [^3H] […] Nonradioactive RTX may be purchased from Alexis Corp. (San Diego, Calif.) and capsazepine from RBI (Natick, Mass).
Cell Culture. […] These transfected cells are selected for two weeks in media containing G418 (400 ug/ml) and then maintained as a pool of stably transfected cells.
pUHG102 VR1 expression plasmids are transfected into Chinese Hamster Ovary (CHO) cells containing the pTet Off Regulator plasmid (Clontech). In these cells, expression of the pUHG plasmid is repressed in the presence of tetracycline but is induced upon removal of the antibiotic. Stable clones are isolated in culture medium containing puromycin (10 ug/ml) and maintained in medium supplemented with tetracycline (1 ug/ml) Cells utilized for assays are grown in culture medium without antibiotic for 48-72 hours prior to use. For radioligand binding experiments, cells are seeded in T175 cell culture flasks in media without antibiotics and grown to approximately 90% confluency. The flasks are then washed with PBS and harvested in PBS containing 5 mM EDTA. The cells are pelleted by gentle centrifugation and stored at −80° C. until assayed.
Previously frozen cells are disrupted with the aid of a tissue homogenizer in ice-cold HEPES homogenization buffer (5mM KCl 5, 5.8mM NaCl, 0.75mM CaCl2, 2mM MgCl2, 320 mM sucrose, and 10 mM HEPES pH 7.4). Tissue homogenates are first centrifuged for 10 min at 1000×g (4° C.) to remove the nuclear fraction and debris and then the supernatant from the first centrifugation is further centrifuged for 30 min at 35,000×g (4° C.) to obtain a partially purified membrane fraction. Membranes are resuspended in the HEPES homogenization buffer prior to being assayed. An aliquot of this membrane homogenate is used to determine protein concentration via the Bradford method (BIO-RAD Protein Assay Ki t, #500-0001, BIO-RAD, Hercules, Calif.).
Binding assay mixtures were set up on ice and contained [^3H]RTX (specific activity 2200 mCi/ml), 2 ul non-radioactive ligands test compound, 0.25 mg/ml bovine serum albumin (Cohn fraction V), and 5×10^4−1×10^5 VR1-transfected cells. The final volume was adjusted to 500 ul (competition binding assays) or 1,000 ul (saturation binding assays) with the ice-cold HEPES homogenization buffer solution (pH 7.4) described above. Non-specific binding was defined as that occurring in the presence of 1 uM non-radioactive RTX. For saturation binding, [^3H]RTX was added in the concentration range of 7 - 1,000 pM, using 1 to 2 dilutions. Typically 11 concentration points are collected per saturation binding curve.
Competition binding assays were performed in the presence of 60 pM [^3H]RTX and various concentrations of competing ligands. The binding reactions are initiated by transferring the assay mixtures into a 37° C. water bath and are terminated following a 60 min incubation period by cooling the tubes on ice. Membrane-bound RTX is separated from free, as well as any alpha1-acid glycoprotein-bound RTX, by filtration onto WALLAC glass fiber filters (PERKIN-ELMER, Gaithersburg, Md.) which are pre-soaked with 1.0% PEI (polyethyleneimine) for 2 hours prior to use.
`CC(C)c1ccc(NC(=O)N2CCN(c3ncccc3C#N)CC2)cc1` [Compound 12, 4-(3-Cyano-2-pyridinyl)-N-[4-(isopropyl)phenyl]-1-piperazinecarboxamide] showed a Ki of less than 4 µM.

Each compound was assayed against T1, human capsaicin receptor (assay: Antagonist assay for Capsaicin receptor mediated calcium mobilization). Conditions: Table III, read-out: EC50 (the source's name).
Type: cell-based
Summary of the method: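 Cells expressing human capsaicin receptor, loaded with Fluo-3 AM, were preincubated 0.5–6 h at room temperature in the dark with test compound at 1–5 μM final in KRH buffer (pH 7.4, 2 mM CaCl2, probenecid). Capsaicin at its EC50 was then added via FLIPR; IC50 is the antagonist concentration halving the calcium signal.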
In the case of `C[C@@H]1CN(c2nccc3ccccc23)CCN1C(=O)Nc1ccc(C2CCCCC2)cc1` [Compound 42, (2R)-N-(4-cyclohexylphenyl)-4-isoquinolin-1-yl-2-methylpiperazine-1-carboxamide], the IC50 is reported as less than 1000 nM. `C[C@@H]1CN(c2ncccc2C(F)(F)F)CCN1C(=O)Nc1ccc(C2CCCC2)cc1` [Compound 37, (2R)-N-(4-cyclopentylphenyl)-2-methyl-4-[3-(trifluoromethyl)pyridin-2-yl]piperazine-1-carboxamide] gave an IC50 of less than 1000 nM. For `C[C@@H]1CN(c2nccc3ccccc23)CCN1C(=O)Nc1ccc(C(C)(C)C)cc1` [Compound 39, (2R)-N-(4-tert-butylphenyl)-4-isoquinolin-1-yl-2-methylpiperazine-1-carboxamide], the IC50 was less than 1000 nM. Compound `C[C@@H]1CN(c2nccc3ccccc23)CCN1C(=O)Nc1ccc(C2CCCC2)cc1` [Compound 41, (2R)-N-(4-cyclopentylphenyl)-4-isoquinolin-1-yl-2-methylpiperazine-1-carboxamide] has an IC50 of less than 1000 nM. For `CC1CN(c2ncccc2Cl)CC(C)N1C(=O)Nc1ccc(C(F)(F)F)cc1` (centres unmarked) [Compound 31, 4-(3-chloropyridin-2-yl)-2,6-dimethyl-N-[4-(trifluoromethyl)phenyl]piperazine-1-carboxamide], the IC50 was less than 1000 nM. With `C[C@@H]1CN(c2ncccc2Cl)CCN1C(=O)Nc1ccc(C(C)(C)C#N)cc1` [Compound 56, (2R)-4-(3-chloropyridin-2-yl)-N-[4-(1-cyano-1-methylethyl)phenyl]-2-methylpiperazine-1-carboxamide] the IC50 was less than 1000 nM. Compound `CC(C)c1ccc(NC(=O)N2C(C)CN(c3ncccc3Cl)CC2C)cc1` (centres unmarked) [Compound 33, 4-(3-chloropyridin-2-yl)-N-(4-isopropylphenyl)-2,6-dimethylpiperazine-1-carboxamide] has an IC50 of less than 1000 nM. With `C[C@@H]1CN(c2ncccc2F)CCN1C(=O)Nc1ccc(C2CCCCC2)cc1` [Compound 78, (2R)-N-(4-cyclohexylphenyl)-4-(3-fluoropyridin-2-yl)-2-methylpiperazine-1-carboxamide] the IC50 was less than 1000 nM. `C[C@@H]1CN(c2ncccc2C(F)(F)F)CCN1C(=O)Nc1ccc(C2CCCCC2)cc1` [Compound 34, (2R)-N-(4-cyclohexylphenyl)-2-methyl-4-[3-(trifluoromethyl)pyridin-2-yl]piperazine-1-carboxamide] was tested, and the IC50 was less than 1000 nM. Work on `C[C@@H]1CN(c2ncccc2Cl)CCN1C(=O)Nc1ccc(C2CCCCC2)cc1` [Compound 18, (2R)-4-(3-chloropyridin-2-yl)-N-(4-cyclohexylphenyl)-2-methylpiperazine-1-carboxamide] yielded an IC50 of less than 1000 nM. With `Cc1cccc(N2CCN(C(=O)Nc3ccc(C(C)(C)C)cc3)[C@H](C)C2)n1` [Compound 86, (2R)-N-(4-tert-butylphenyl)-2-methyl-4-(6-methylpyridin-2-yl)piperazine-1-carboxamide] the IC50 was less than 1000 nM. With `C[C@@H]1CN(c2ncccc2N(C)C)CCN1C(=O)Nc1ccc(C(F)(F)F)cc1` [Compound 44] the IC50 was less than 1000 nM. In the case of `C[C@@H]1CN(c2ncccc2N(C)C)CCN1C(=O)Nc1ccc(C(C)(C)C)cc1` [Compound 43, (2R)-N-(4-tert-butylphenyl)-4-[3-(dimethylamino)pyridin-2-yl]-2-methylpiperazine-1-carboxamide], the IC50 is reported as less than 1000 nM. With `CC(C)(C)C1CN(c2ncccc2C(F)(F)F)CCN1C(=O)Nc1ccc(C(F)(F)F)cc1` (centres unmarked) [Compound 68, 2-tert-butyl-N-[4-(trifluoromethyl)phenyl]-4-[3-(trifluoromethyl)pyridin-2-yl]piperazine-1-carboxamide] the IC50 was less than 1000 nM.

Same assay, conditions: Table IV, read-out: EC50 (the source's name)
Compound `CC(C)C1CCC(NC(=O)N2CCN(c3ncccc3C(F)(F)F)C[C@H]2C)CC1` (stereo partly drawn) [Compound 101, (2R)-N-(4-isopropylcyclohexyl)-2-methyl-4-[3-(trifluoromethyl)pyridin-2-yl]piperazine-1-carboxamide] has an IC50 of less than 1000 nM. `O=C(Nc1ccc(C(F)(F)F)cn1)N1CCN(c2ncccc2Cl)CC1` [Compound 93, 4-(3-chloropyridin-2-yl)-N[5-(trifluoromethyl)pyridin-2-yl]piperazine-1-carboxamide] gave an IC50 of less than 1000 nM.

Same assay, conditions: Table V, read-out: EC50 (the source's name)
`C[C@@H]1CN(c2ncccc2Cl)CCN1C(=O)Nc1ccc(C(F)(C(F)(F)F)C(F)(F)F)cc1` [Compound 162, (2R)-4-(3-chloropyridin-2-yl)-2-methyl-N-{4-[1,2,2,2-tetrafluoro-1-(trifluoromethyl)ethyl]phenyl}piperazine-1-carboxamide] was tested, and the IC50 was less than 1000 nM. For `CC(c1ccc(NC(=O)N2CCN(c3ncccc3F)C[C@H]2C)cc1)C(F)(F)F` (stereo partly drawn) [Compound 130, (2R)-4-(3-fluoropyridin-2-yl)-2-methyl-N-[4-(2,2,2-trifluoro-1-methylethyl)phenyl]piperazine-1-carboxamide], the IC50 was less than 1000 nM. In the case of `C[C@@H]1CN(c2ncc([N+](=O)[O-])cc2Cl)CCN1C(=O)Nc1ccc(C(F)(F)F)cc1` [Compound 131, (2R)-4-(3-chloro-5-nitrpyridin-2-yl)-2-methyl-N-[4-(trifluoromethyl)phenyl]piperazine-1-carboxamide], the IC50 is reported as less than 1000 nM. Compound `C=C(c1ccc(NC(=O)N2CCN(c3ncccc3F)C[C@H]2C)cc1)C(F)(F)F` [Compound 127, (2R)-4-(3-fluoropyridin-2-yl)-2-methyl-N-{4-[1-(trifluoromethyl)vinyl]phenyl}piperazine-1-carboxamide] has an IC50 of less than 1000 nM. In the case of `O=C(Nc1cccc([N+](=O)[O-])c1)N1CCN(c2ncccc2C(F)(F)F)CC1` [Compound 116, N-(3-nitrophenyl)-4-[3-(trifluoromethyl)pyridin-2-yl]piperazine-1-carboxamide], the IC50 is reported as less than 1000 nM. With `CC(c1ccc(NC(=O)N2CCN(c3ncccc3C(F)(F)F)C[C@H]2C)cc1)C(F)(F)F` (stereo partly drawn) [Compound 129, (2R)-2-methyl-N-[4-(2,2,2-trifluoro-1-methylethyl)phenyl]-4-[3-(trifluoromethyl)pyridin-2-yl]piperazine-1-carboxamide] the IC50 was less than 1000 nM. With `O=C(Nc1ccc(C(F)(F)F)cc1)N1CCN(c2ncccc2C(F)(F)F)CC1CF` (centres unmarked) [Compound 153, 2-(fluoromethyl)-N-[4-(trifluoromethyl)phenyl]-4-[3-(trifluoromethyl)pyridin-2-yl]piperazine-1-carboxamide] the IC50 was less than 1000 nM. For `O=C(Nc1cccc(C(F)(F)F)c1)N1CCN(c2ncccc2C(F)(F)F)CC1` [Compound 110, N-[3-(trifluoromethyl)phenyl]-4-[3-(trifluoromethyl)pyridin-2-yl]piperazine-1-carboxamide], the IC50 was less than 1000 nM. `C[C@@H]1CN(c2ncccc2Cl)CCN1C(=O)Nc1ccc(Cl)c(C(F)(F)F)c1` [Compound 158, (2R)-4-(3-chloropyridin-2-yl)-N-[4-chloro-3-(trifluoromethyl)phenyl]-2-methylpiperazine-1-carboxamide] gave an IC50 of less than 1000 nM. Compound `Cc1ccc(NC(=O)N2CCN(c3ncccc3C(F)(F)F)C[C@H]2C)cc1C(F)(F)F` [Compound 155, (2R)-2-methyl-N-[4-methyl-3-(trifluoromethyl)phenyl]-4-[3-(trifluoromethyl)pyridin-2-yl]piperazine-1-carboxamide] has an IC50 of less than 1000 nM.

Same assay, conditions: Table VI, read-out: EC50 (the source's name)
With `C[C@@H]1CN(c2ncccc2Cl)CCN1C(=S)Nc1ccc(C(C)(C)C)cc1` [Compound 168] the IC50 was less than 1000 nM. `CCCCc1ccc(NC(=S)N2CCN(c3ncccc3Cl)C[C@H]2C)cc1` [Compound 167] was tested, and the IC50 was less than 1000 nM.
